Measured values published in patent US20120196858A1, “METHOD OF PROMOTING APOPTOSIS AND INHIBITING METASTASIS” (Poniard Pharmaceuticals ,Inc., priority 2009, published 2012).
pIC50: −log10 of the molar value.

Experiments:
[1] = test system: ID8 ovarian carcinoma cells; assay: ID8 suspended spheroid cell growth; type: cell-based, murine
Method: Anchorage-dependent, spheroid, and soft agar cell growth assays: Cells (2×10^5) were plated per 35 mm well under adherent (tissue culture-treated) and non-adherent conditions (poly-HEMA-coated) in 6-well plates (Costar) in growth media. […] For spheroid area determination, cells were imaged after 72 h in phase contrast using an Olympus IX51 microscope. Area was calculated using Image J software (version 1.43). For soft agar assays, 48-well plates were coated with a 1:4 mix of 2% agar (EM Science) in 0.2 ml growth media (bottom layer). 5×10^4 cells were plated per well (in triplicate) in a mixture of 0.3% agar in 0.2 ml growth media (top layer). […] After 10 days, colonies were imaged in phase contrast, enumerated by counting 9 fields (3 fields per well), and total area determined using Image J. For all analyses, experimental points were performed in triplicate and were experiments were repeated at least two times.

[2] = test system: interleukin-6 (IL-6) production in 4T1 cells; assay: IL-6 ELISA after TNFα stimulation; type: cell-based, murine; conditions: 0.25 to 1.0 μM; TNFα 10 ng/ml, 24 h
Method: After 1 h, recombinant tumor necrosis factor-α (TNFα eBioScience) was added (10 ng/ml) and after 24 h, IL-6 levels in conditioned media were measured using anti-mouse IL-6 ELISA kit (eBioScience).

[3] = test system: p130Cas tyrosine phosphorylation (pY249, pY410); assay: Phospho-specific immunoblotting of p130Cas in 4T1 cells; type: cell-based, murine
Source text: (§1) Immunoblotting: Protein extracts of cells were made using lysis buffer containing 1% Triton X-100, 1% sodium deoxycholate, and 0.1% SDS and were separated by 4-12% SDS-PAGE (sodium dodecyl sulfate polyacrylamide gel electrophoresis) and sequential immunoblotting performed as described in Mitra S K, Lim S T, Chi A, Schlaepfer D D. Intrinsic focal adhesion kinase activity controls orthotopic breast carcinoma metastasis via the regulation of urokinase plasminogen activator expression in a syngeneic tumor model. Oncogene 2006; 25:4429-40. Relative expression levels and phospho-specific antibody reactivity were measured by densitometry analyses of blots using Image J (version 1.42q). Inhibition of FAK and p130Cas tyrosine phosphorylation was quantified by calculating the ratio of pY397 FAK protein to total FAK. Similar analyses were performed for p130Cas using pY410 p130Cas and total p130Cas blot data.

Solubility in water = type: physicochemical; conditions: HCl salt
Source text: 10, 2008, and published as WO 2008/115369.

4T1 tumors = assay: Subcutaneous mCherry 4T1 tumor growth in BALB/c mice; type: in vivo
Method: Detection of apoptosis in tumors: Fresh tumors were snap-frozen in Optimal Cutting Temperature (OCT) compound (Tissue Tek), thin sectioned ([…]) using a cryomicrotome (Leica 3050S) and mounted onto glass slides. Sections were fixed with 3% paraformaldehyde, permeabilized in PBS containing 0.1% Triton for 3 min, and blocked with 8% goat serum in PBS for 60 min at RT. For activated caspase-3 detection, sections were incubated with cleaved caspase-3 antibody (1:200 diluted in 2% goat serum in PBS) for 18 h at 4° C., washed with PBS, and incubated with fluorescein isothiocyanate conjugated anti-rabbit and TOPRO-3 (blue) for DNA detection. Sections were imaged on a Nikon Eclipse C1 confocal microscope with a 1.4 NA 60× oil objective, with a 30 μm pinhole setting, and analyzed using EZ-C1 3.50 software (Nikon). Tumor apoptosis was also measured by terminal deoxynucleotidyl transferase dUTP nick end labeling (TUNEL) staining using the tetramethylrhodamine (TMR) kit as per the manufacturer's instructions (Roche). Bright field and fluorescent images of whole tumor sections were obtained using Zeiss M2-Bio Stereo microscope equipped with INFINITY1-3C: digital color camera and a 4× objective.
(§2) Mouse tumor studies: Six to eight week old female C57B16 and BALB/c mice were obtained from Harlan Laboratories (Indianapolis, Ind.) and housed in pathogen-free conditions, according to the guidelines of the Association for the Assessment and Accreditation for Laboratory Animal Care, International. All in vivo studies were carried out under an approved institutional experimental animal care and use protocol. Growing tumor cells were harvested by limited trypsinization, washed in PBS, and counted using a ViCell XR (Beckman) prior to injection. Cell viability as measured by trypan blue exclusion was >95%. For subcutaneous tumor growth, 1×10^6 mCherry-labeled 4T1 cells in 100 μl PBS were injected into the hindflank of Balb/C mice. […] Control animals received PEG400:PBS injections and at 13 days, tumors were imaged in situ using an Olympus OV100 Intravital Fluorescence Molecular Imaging System, tumors were excised and weighed, half was frozen in OCT, and half was solubilized in protein lysis buffer for FAK phosphorylation analyses. For ID8 ovarian carcinoma tumor growth, 0.8 mL of 1×10^7 ID8 cells in PBS was intraperitoneal injected into C57B16 mice. […] Administration continued ad libitum for 30 days after which mice were euthanized, ascites fluid collected, cells obtained by centrifugation (2000 rpm for 5 min), cell volume measured by pipet, and then solubilized in protein lysis buffer for immunoblotting analyses.

[4] = target: T1, FAK Tyr-397 phosphorylation (Homo sapiens, UniProt Q05397); assay: Anti-phospho-specific immunoblotting of FAK Tyr-397 in human breast carcinoma cells; type: cell-based
T1 construct: endogenous in cells; host or cells: MDA-MB-231 human breast carcinoma cells
Source text: as §1

[5] = test system: ID8 ovarian carcinoma cells; assay: Intraperitoneal ID8 ovarian carcinoma tumor growth in C57Bl6 mice; type: in vivo, C57B16 mice
Method: as §2

4T1 cells = assay: Time lapse scratch-wound closure motility assay; type: cell-based
Method: Cell migration assays: Serum-stimulated chemotaxis using Millicell (12 mm diameter with 8 μm pores; Millipore) chambers were performed as described previously^49. Both sides of membrane were coated with fibronectin (10 μg/ml) and chemotaxis was stimulated by addition of 10% FBS to the lower chamber. Data points represent cell counts (9 fields) from three migration chambers from at least two independent experiments. For scratch-wound closure motility assays, cells were seeded onto fibronectin-coated (10 μg/ml) glass bottom 12 well plates (MatTek) and serum starved (0.5% FBS) for 16 h. Cells were wounded with a pipette tip, washed with phosphate-buffered salin (PBS), and replenished with 10% FBS media with or without FAK inhibitor (1 μM). Time-lapse series was obtained by acquiring images at 10 min intervals for up to 22 h, at 37° C. with humidity and CO2 regulation using a 10× objective on an automated stage (Olympus IX81). Cell trajectories and distance traveled were measured by tracking nucleus position over time using Image J.

[6] = 0.5 mg/ml ad libitum, 30 treatment days

T1 sequence (Q05397 whole entry): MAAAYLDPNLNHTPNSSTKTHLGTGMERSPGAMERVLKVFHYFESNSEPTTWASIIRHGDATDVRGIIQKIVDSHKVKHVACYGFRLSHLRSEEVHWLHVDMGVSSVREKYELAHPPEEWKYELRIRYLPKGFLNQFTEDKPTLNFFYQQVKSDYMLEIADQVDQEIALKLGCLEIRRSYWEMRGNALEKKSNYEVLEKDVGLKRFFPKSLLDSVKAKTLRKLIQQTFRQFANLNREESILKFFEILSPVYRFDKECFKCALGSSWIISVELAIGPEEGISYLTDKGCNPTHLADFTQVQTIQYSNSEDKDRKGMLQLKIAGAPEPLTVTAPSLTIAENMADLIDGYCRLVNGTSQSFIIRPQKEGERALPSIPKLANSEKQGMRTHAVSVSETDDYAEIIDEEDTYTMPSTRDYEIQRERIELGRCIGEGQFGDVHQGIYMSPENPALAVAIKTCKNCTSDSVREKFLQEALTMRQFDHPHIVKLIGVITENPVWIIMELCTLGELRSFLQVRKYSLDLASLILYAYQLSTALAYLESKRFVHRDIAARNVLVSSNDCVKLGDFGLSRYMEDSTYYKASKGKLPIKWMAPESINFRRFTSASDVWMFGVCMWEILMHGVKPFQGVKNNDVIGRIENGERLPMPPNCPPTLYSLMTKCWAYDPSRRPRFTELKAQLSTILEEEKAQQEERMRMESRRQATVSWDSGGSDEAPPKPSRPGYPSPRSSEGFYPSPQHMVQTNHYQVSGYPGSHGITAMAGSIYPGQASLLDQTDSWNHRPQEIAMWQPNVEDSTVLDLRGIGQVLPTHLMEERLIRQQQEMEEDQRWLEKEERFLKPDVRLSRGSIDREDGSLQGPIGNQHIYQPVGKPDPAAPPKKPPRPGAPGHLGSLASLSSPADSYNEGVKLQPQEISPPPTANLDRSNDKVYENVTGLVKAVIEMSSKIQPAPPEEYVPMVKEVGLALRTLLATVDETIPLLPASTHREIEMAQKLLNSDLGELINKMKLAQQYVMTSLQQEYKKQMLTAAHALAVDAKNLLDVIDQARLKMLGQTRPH

CNC(=O)c1ccccc1Nc1cc(Nc2ccc(N3CCOCC3)cc2OC)ncc1C(F)(F)F [PND-1186]
ID8 cell number ([1]; 0.1, 0.4, and 1.0 μM, 72 h, suspended spheroids): significantly inhibited ID8 cell number
viable ID8 cells ([1]; after 15 days): dramatic reduction in viable cells
TNFα-triggered IL-6 release [2]: inhibited IL-6 release in a dose-dependent manner
p130Cas pY249 phosphorylation in 4T1 spheroids ([3]; 0.1 μM, 3D spheroids): potently inhibited
p130Cas pY410 phosphorylation in 4T1 spheroids ([3]; 0.1 μM, 3D spheroids): potently inhibited
p130Cas pY249 phosphorylation ([3]; adherent 4T1 cells, 1 h, PND-1186 to 1 μM): did not affect
solubility (Solubility in water): 22 mg/mL
final tumor weight (4T1 tumors; 30 mg/kg b.i.d., 5 days): slightly reduced final tumor weight but was not significantly different
cleaved caspase-3 staining in tumors (4T1 tumors; 100 mg/kg): elevated cleaved caspase-3 staining
reduction of final tumor weight (4T1 tumors; 100 mg/kg b.i.d., 5 days): 2 fold
tumor TUNEL staining (4T1 tumors; 30 and 100 mg/kg b.i.d., vs vehicle): significantly increased tumor TUNEL staining
pIC50 [4]: ~7.00
inhibition of FAK pY397 in ascites cells ([5]; 0.5 mg/ml ad libitum vs 5% sucrose): > 2 fold
ascites-associated cells [5, 6]: lower number of ascites-associated cells
swollen abdomens [5, 6]: did not exhibit swollen abdomens
tumor nodules within the peritoneal space ([5]; 0.5 mg/ml ad libitum, dsRed imaging): significantly fewer tumor nodules
adverse effects and body weight ([5]; 0.5 mg/ml in 5% sucrose ad libitum): No adverse effects and no body weight loss
tumor burden, caspase 3 cleavage, tumor TUNEL staining ([5]; 0.5 mg/ml in drinking water of mice, tumor model not named at the place): decreased tumor burden, increased caspase 3 cleavage, and elevated tumor TUNEL staining
cell detachment or death (4T1 cells; 1 μM over 22 h): No evidence of 4T1 cell detachment or death
wound closure (4T1 cells; 1 μM, 22 h (DMSO 89%)): 40%
